Results on three compounds are retold here after patent US11286459B2, “Cell culturing method using nucleic acid-containing medium” (Astellas Pharma Inc., priority 2015, dated 2022).

What all share (format): cell-based, Chinese hamster
The subject of assay [1] is IgG-expressing CHO cell line (anti-human α9 antibody RY9A2v12 (M34L) 012). As to the kind of experiment: Fed-batch culture with deoxyuridine, thymidine and/or deoxycytidine (Example 4). The conditions noted are these: 25 mg/L. As to the method:
Using a culture medium for animal cells as a cell growth medium, fed-batch culture of an IgG-expressing CHO cell line (a CHO cell line in which an anti-human α9 antibody ([…]) 012) had been recombinantly expressed, as described in WO 2009/088064) was started at an initial viable cell density of 1×10^6 cells/mL under the conditions of 36.5° C. and 5% CO2. At the start of culture, deoxyuridine, thymidine, and/or deoxycytidine was/were each added to a final concentration of 0 or 25 mg/L according to Table 2. The culture was continued until day 14 of culture while a feed culture medium was added everyday from day 2 of culture. Sampling was done at appropriate timings. Viable cell densities were measured by trypan blue exclusion method, and antibody concentrations were measured by protein A column HPLC. […] [table]

The subject of assay [2] is IgG-expressing CHO cell line (anti-human TSLP receptor antibody, fully human T7-27). As to the kind of experiment: Fed-batch culture with deoxyuridine added on day 2 (Example 1); trypan blue exclusion, protein A column HPLC. The protocol:
Using a culture medium for animal cells as a cell growth medium, fed-batch culture of an IgG-expressing CHO cell line (a CHO cell line in which an anti-human thymic stromal lymphopoietin (TSLP) receptor antibody (fully human T7-27) had been recombinantly expressed, as described in WO 2015/020193) was started at an initial viable cell density of 1×10^6 cells/mL under the conditions of 36.5° C. and 5% CO2. On day 2 of culture, deoxyuridine was added to cultures to a final concentration of 10, 25, 50, 100 or 200 mg/L. The culture was continued until day 14 of culture while a feed medium was added everyday from day 2 of culture. Sampling was done at appropriate timings. Viable cell densities were measured by trypan blue exclusion study, and antibody concentrations were measured by protein A column HPLC. […] It was also observed that even addition of […] deoxyuridine enhancedantibody production during the cell culture until day 10 to day 12.

Assay [3] shares this test system. As to the kind of experiment: Fed-batch culture with deoxyuridine in the presence of thymidine and deoxycytidine (Example 2). The conditions noted are these: for highest viable cell density observed during the 14 days of culture: at start of culture; for antibody concentration on the final day of culture: day 14. As to the method:
Using a culture medium for animal cells as a cell growth medium, fed-batch culture of an IgG-expressing CHO cell line (a CHO cell line in which an anti-human TSLP receptor antibody (fully human T7-27) had been recombinantly expressed, as described in WO 2015/020193) was started at an initial viable cell density of 1×10^6 cells/mL under the conditions of 36.5° C. and 5% CO2. At the start of culture, thymidine and deoxycytidine hydrochloride (in the working examples given in the subject specification, deoxycytidine hydrochloride was actually used as deoxycytidine, and the concentrations of deoxycytidine hydrochloride are expressed by using the converted concentration value of deoxycytidine from deoxycytidine hydrochloride.) were each added to cultures to a final concentration of 25 mg/L, and deoxyuridine was added to a final concentration of 10, 25, 40, 55, 70 or 85 mg/L. The culture was continued until day 14 of culture while a feed culture medium was added everyday from day 2 of culture. Sampling was done at appropriate timings. Viable cell densities were measured by trypan blue exclusion method, and antibody concentrations were measured by protein A column HPLC.

The test system is the same in assay [4]. The experiment in a line: Fed-batch culture with deoxyuridine, thymidine and deoxycytidine added on day 2 (Example 3). The settings on record: 25 mg/L of each added component. As to the method:
Using a culture medium for animal cells as a cell growth medium, fed-batch culture of an IgG-expressing CHO cell line (a CHO cell line in which an anti-human TSLP receptor antibody (fully human T7-27) had been recombinantly expressed, as described in WO 2015/020193) was started at an initial viable cell density of 1×10^6 cells/mL under the conditions of 36.5° C. and 5% CO2. On day 2 of culture, deoxyuridine was added to a final concentration of 25 mg/L, and thymidine and deoxycytidine were each added to cultures to a final concentration of 0 or 25 mg/L according to Table 1. The culture was continued until day 14 of culture while a feed culture medium was added everyday from day 2 of culture. Sampling was done at appropriate timings. Viable cell densities were measured by trypan blue exclusion method, and antibody concentrations were measured by protein A column HPLC. […] In contrast, in the case of addition of deoxyuridine in the presence of 25 mg/L each of thymidine and deoxycytidine (dU-dT-dC), the viable cell density, cell viability, and antibody concentration on the final day of the 14 days of culture were 12×10^6 cells/mL, approximately 78%, and 5.8 g/L, respectively; these values were higher than in the cases of addition of dU, addition of deoxyuridine and deoxycytidine (dU-dC), and addition of deoxyuridine and thymidine (dU-dT). […] [table]

Assay [5] relates to IgG-expressing CHO cell line (anti-human α9 integrin antibody RY9A2v12 (M34L) 012). As to the kind of experiment: Batch culture with deoxyuridine (Example 6). As to the method: Using a culture medium for animal cells as a cell growth medium, batch culture of an IgG-expressing CHO cell line (a CHO cell line in which an anti-human α9 integrin antibody (hereinafter referred to as “anti-human α9 antibody”) (RY9A2v12 (M34L) 012) had been recombinantly expressed, as described in WO 2009/088064) was started at an initial viable cell density of 0.3×10^6 cells/mL under the conditions of 36.5° C. and 5% CO2. At the start of culture, deoxyuridine was added to cultures to a final concentration of 5, 25, 100, 500 or 1000 mg/L, and then the culture was continued for 5 days. Sampling was done at appropriate timings. Viable cell densities were measured bytrypan blue exclusion method, and antibody concentrations were measured by protein A column HPLC.

Assay [6] relates to IgG-expressing CHO cell line (anti-human TSLP receptor antibody, fully human T7-27). The experiment in a line: Fed-batch culture, comparison with uridine and thymidine (Example 7). The settings on record: 25 mg/L of each added component. The protocol: (§1) Using a culture medium for animal cells as a cell growth medium, fed-batch culture of an IgG-expressing CHO cell line (a CHO cell line in which an anti-human TSLP receptor antibody (fully human T7-27) had been recombinantly expressed, as described in WO 2015/020193) was started at an initial viable cell density of 1×10^6 cells/mL under the conditions of 36.5° C. and 5% CO2. At the start of culture, deoxyuridine, thymidine and deoxycytidine were each added to a final concentration of 25 mg/L. To provide comparative conditions, uridine (U) and thymidine were added, at the start of culture, at concentrations of 7 mg/L and 0.24 mg/L, respectively (these concentrations are the same as those described in Examples of EP 1818392 B1). The culture was continued under each of the different conditions described above until day 14 of culture while a feed culture medium was added everyday from day 2 of culture. Sampling was done at appropriate timings. Viable cell densities were measured by trypan blue exclusion method, and antibody concentrations were measured by protein A column HPLC.

The subject of assay [7] is IgG-expressing CHO cell line (anti-human α9 antibody RY9A2v12 (M34L) 012). As to the kind of experiment: Fed-batch culture, comparison with uridine and thymidine (Example 8). The conditions noted are these: 25 mg/L of each added component. The protocol:
as §1, with “α9” for “TSLP receptor”, “([…]) 012)” for “(fully human T7-27)”, “2009/088064)” for “2015/020193)”, “uridine” for “uridine (U)”, “feed” for “feed culture”, “HPLC. […] In contrast, the highest viable cell densities were approximately 21×10^6 cells/mL in the case of addition of 25 mg/L deoxyuridine (dU25 mg/L), and about 31×10^6 cells/mL in the case of addition of 25 mg/L each of deoxyuridine, thymidine and deoxycytidine (dUdTdC25 mg/L); these values were higher than control.” for “HPLC.”

Assay [8] concerns Fab′ fragment-expressing CHO cell line (anti-human NGF antibody Fab′ fragment 1-15 (N52D-A)-Fab′). As to the kind of experiment: Fed-batch culture, comparison with uridine and thymidine (Example 9). The settings on record: 25 mg/L of each added component. As to the method:
Using a culture medium for animal cells as a cell growth medium, fed-batch culture of a Fab′ fragment-expressing CHO cell line (a CHO cell line in which an anti-human NGF antibody Fab′ fragment (1-15 (N52D-A)-Fab′) had been expressed, as described in WO 2013/022083) was started at an initial viable cell density of 1×10^6 cells/mL under the conditions of 36.5° C. and 5% CO2. At the start of culture, deoxyuridine, thymidine and deoxycytidine were each added to a final concentration of 25 mg/L. To provide comparative conditions, uridine and thymidine were added, at the start of culture, at concentrations of 7 mg/L and 0.24 mg/L, respectively (these concentrations are the same as those described in Examples of EP 1818392 B1). The culture was continued under each of the different conditions described above until day 14 of culture while a feed medium was added everyday from day 2 of culture. Sampling was done at appropriate timings. Viable cell densities were measured by trypan blue exclusion method, and antibody concentrations were measured by reverse-phase HPLC.

[9] abbreviates: 10 mg/L deoxyuridine with 25 mg/L each thymidine and deoxycytidine.
The mark [10] stands for this setting: 25 mg/L deoxyuridine with 25 mg/L each thymidine and deoxycytidine.

For `Nc1ccn([C@H]2C[C@H](O)[C@@H](CO)O2)c(=O)n1` [deoxycytidine], in assay [1], the “effects when added alone (viable cell density, antibody concentration)” value (“effects when added alone” below) was “no effect”.

In the case of `O=c1ccn([C@H]2C[C@H](O)[C@@H](CO)O2)c(=O)[nH]1` [deoxyuridine], the “antibody production during the cell culture until day 10 to day 12” value in assay [2] (10 mg/L deoxyuridine) is on record as “enhanced”. Further, the “highest viable cell density observed during the 14 days of culture” value in assay [2] (25 mg/L deoxyuridine added on day 2, control about 10) is reported as “about 18 ×10^6 cells/mL”; in assay [3] (setting [9]) it was “about 27 ×10^6 cells/mL”; in assay [3] (setting [10]) it was “approximately 32 ×10^6 cells/mL”; in assay [6] (at start of culture, control approximately 12) it was “approximately 21 ×10^6 cells/mL”; in assay [7] (at start of culture, control about 16), “approximately 21 ×10^6 cells/mL”; in assay [8] (at start of culture, control approximately 14), “approximately 26 ×10^6 cells/mL”. Further, the “antibody concentration on the final day of culture” value is reported as 5.5 g/L in assay [2] (25 mg/L deoxyuridine added on day 2, day 14, control 3.3); 5.9 g/L in assay [3] (setting [9]); 6.8 g/L in assay [3] (setting [10]); “approximately 4.6 g/L” in assay [6] (day 14, control approximately 2.9). Further, the “response to deoxyuridine addition (cell growth and antibody production)” value in assay [2] (any concentration tested from 10 mg/L to 200 mg/L) is “enhanced cell growth and antibody production”. Moreover, the “enhancing effects on cell growth and antibody production” value in assay [3] (deoxyuridine 25 mg/L or higher in the presence of thymidine and deoxycytidine, versus 10 mg/L) was “higher enhancing effects on cell growth and antibody production”. Further, in assay [4], the “antibody concentration on the final day of the 14 days of culture” value is recorded as 5.1 g/L. Further, the “cell viability on the final day of the 14 days of culture” value in assay [4] is reported as “approximately 61%”. The “viable cell density on the final day of the 14 days of culture” value in assay [4] was “approximately 7.6 ×10^6 cells/mL”. The “effects when added alone” value in assay [1] was “produce effects”. Further, the “highest viable cell density observed during the 5 days of culture” value in assay [5] (100 mg/L deoxyuridine at start of batch culture, control approximately 7) is “approximately 10 ×10^6 cells/mL”. The “effect on cell growth” value in assay [5] (any concentration tested from 5 mg/L to 500 mg/L) was “enhancing effect on cell growth”. In assay [7] (FIG. 16), the “antibody concentrations during culture versus control” value is reported as “higher levels than control”. Besides, the “protein concentration on the final day of culture” value in assay [8] (day 14, control approximately 2.2) is on record as “approximately 3.1 g/L”.

For `Cc1cn([C@H]2C[C@H](O)[C@@H](CO)O2)c(=O)[nH]c1=O` [thymidine], in assay [1], the “effects when added alone” value is listed as “produce effects”.
